Results from PMC10360056, “Chemical Evolution of Amphiphilic Xenopeptides for Potentiated Cas9 Ribonucleoprotein Delivery” (Journal of the American Chemical Society, 2023).

Tests used:
[1] = LogD7.4 determination of xenopeptides (octanol-water); format: physicochemical; details: shake-flask n-octanol/HEPES buffer (20 mM, pH 7.4); 10 μL of 10 mg/mL xenopeptide in water + 90 μL buffer + 100 μL n-octanol; shaken 1400 rpm 24 h; centrifuged, 4 °C 1 h; HPLC, extinction 280 nm; log(Aoctanol/Awater); triplicate
Protocol: LogD7.4 determination of xenopeptides
Octanol-water partition coefficient D at pH 7.4 (logD7.4) was determined as previously reported with slight modification.5
Scheme S3 illustrates the logD7.4 determination procedures of all xenopeptides in this study. Briefly, 10 μL of 10 mg/mL xenopeptides in water were diluted with 90 μL HEPES buffer (20 mM, pH 7.4) in 1.5 mL reaction tubes. 100 μL n-octanol were then added. The tubes were shaken at 1400 rpm for 24 h. Afterwards, the tubes were centrifuged followed by storage at 4 °C for 1 h to separate n-octanol and water phases. 70 μL of each phase were injected for HPLC analysis. The extinction at 280 nm was monitored and the peak area (A) of the xenopeptides was calculated. LogD7.4 was calculated as log(Aoctanol / Awater).
All experiments were performed in triplicate. […]
Cas9 RNP/ssDNA nanocarriers. […]

[2] = Characterization of Cas9 RNP nanocarriers by DLS (size, PDI, zeta potential); format: physicochemical; details: N/P ratio 24, RNP 75 nM, three technical replicates; for PDI of Cas9 RNP nanocarriers / hydrodynamic size (z-average) of Cas9 RNP nanocarriers: DLS, HBG pH 7.4, mean ± SD; for zeta potential of Cas9 RNP nanocarriers: electrophoretic light scattering, HEPES 20 mM pH 7.4, mean ± SD
Protocol: Preparation of Cas9 RNP and Cas9 RNP/ssDNA nanocarriers
Cas9 protein was expressed, purified, and stored at -80 °C in storage buffer (20 mM HEPES, 200 mM KCl, 10 mM MgCl 2, 1 mM DTT, 30 % glycerol) as described previously.6 Cas9 protein and sgRNA (dissolved in RNase-free water) were mixed at 1:1 molar ratio and incubated at RT for 15 min to form the Cas9/sgRNA ribonucleoprotein (RNP) complexes. Afterwards, Cas9 RNP was added into the xenopeptide solution in HBG buffer (pH 7.4) at an N/P (nitrogen t o phosphate of sgRNA) ratio of 24. The solution was mixed thoroughly by pipetting up and down and incubated at RT for another 15 min to generate the final Cas9 RNP nanocarriers. In case of preparing Cas9 RNP/ssDNA nanocarriers for HDR experiments, Cas9 RNP was mixed with ssDNA HDR template at 1:1 molar ratio and then added into the xenopeptide solution in HBG buffer (pH 7.4) at an N/P (nitrogen to phosphate of sgRNA plus ssDNA) ratio of 12. The solution was mixed and incubated for 40 min to generate the Cas9 RNP/ssDNA nanocarriers.
Characterization of Cas9 RNP nanocarriers
The hydrodynamic size, PDI and zeta potential of Cas9 RNP nanocarriers were measured by DLS using a Zetasizer Nano ZS (Malvern Instruments, UK). Cas9 RNP nanocarriers were prepared as desc ribed above. The hydrodynamic size of Cas9 RNP nanocarriers containing 1.25 μg Cas9 protein and 0.25 μg sgRNA (Cas9/sgRNA, 1:1 molar ratio) in 100 μL HBG was measured.
Afterwards, 700 μL HEPES buffer (20 mM, pH 7.4) were added to each sample and the soluti on was mixed for the zeta potential measurement. For the dilution stability study, Cas9 RNP nanocarriers were prepared at an RNP concentration of 375 nM (6.25 μg Cas9 protein and 1.25 μg sgRNA) and then diluted with HBG buffer to a series of RNP concentrat ions (75, 50, 25, 10, 5, 2.5, 1, 0.5, and 0.1 nM). The size and zeta potential of diluted samples were measured as described above.

HeLa eGFP/tub cells = test: eGFP knockout study by Cas9 RNP nanocarriers, flow cytometry; format: cell-based; details: 1 nM RNP, 48 h treatment, N/P 24
Protocol: HeLa WT, HeLa eGFP/tub, HeLa GFPd2 (destabilized eGFP), CT26 eGFP/luc and N2a eGFP/luc cells were grown in DMEM medium supplemented with 10 % FBS, 100 U/mL penicillin, and 100 μg/mL streptomycin. The cells were cultured in ventilated flasks in the cell incubator at 37 °C and 5 % CO2 in a humidified atmosphere. The cells were passaged at a confluency of […]
Cells were harvested and resuspended in 600 μL of FACS buffer (PBS buffer containing 10 % FBS). The samples were ana-lyzed by flow cytometry on a CytoFLEX S flow cytometer (Beckman Coulter, CA, USA). For eGFP knockout and cellular uptake experiments, 0.6 μL of 1 μg/μL DAPI was added to each sample for differentiating live and dead cells before the measurement. The DAPI signal and BFP fluorescence were detected with 405 nm excitation and 450 nm emission. The eGFP and ATTO488 fluorescence was assayed with 488 nm excitation and 530 nm emission. The ATTO647N fluorescence was assayed with 640 nm excitation and 670 nm emission. Ten thousand of isolated live cells were counted and evaluated. The data were analyzed using FlowJo 7.6.5 by FlowJo, LLC (Becton, Dickinson and Company, USA). […]
Endosomal escape of Cas9 RNP nanocarriers […]
Next, the […]
cells were washed twice with PBS and then fixed with 4 % PFA at RT for 40 min. Afterwards, the cells were washed and incubated with 2 µg/mL DAPI (for staining cell nuclei) for 30 min. Then, the staining solution was removed and 300 μL fresh PBS were added. The slides w ere stored at 4 °C in the dark until the measurement. […]
Then, the image was conv erted into 8-bit type. The mRuby3/gal8 spots were further determined by Threshold tool, and the number of the spots in the cell cytosol per cell were counted by Analyze Particles tool.
One day prior to the treatments, HeLa eGFP/tub cell s were seeded into 96 -well plates at a density of 5000 cells/well. On the next day, the medium was replaced with 80 μL of fresh medium. 20 μL of Cas9 RNP nanocarriers were added to each well resulting in a series of concentrations of RNP (100, 75, 50, 25, 10, 5, 2.5, 1, 0.5, and 0.1 nM). Lipofectamine CRISPRMAX was tested at the same concentrations of RNP with the preparation procedures as recommended by the manufacturer. The cells were incubated for 48 h. Afterwards, the cells were trypsinized and transfer red to 24-well plates, and incubated for another 72 h. Then, the cells were harvested and prepared for flow cytometry analysis. All experiments were performed in triplicate. eGFP to BFP conversion (HDR) study
One day prior to the treatments, HeLa GFPd2 cel ls were seeded into 96 -well plates at a density of 5000 cells/well. On the next day, the medium was replaced with 80 μL of fresh medium. 20 μL of Cas9 RNP/ssDNA nanocarriers containing different molar ratios of RNP/ssDNA were added to each well resulting i n a series of concentrations of RNP (100, 75, 50, 25, 10, 5, 2.5, 1, 0.5, and 0.1 nM). Lipofectamine CRISPRMAX was tested at the same concentrations of RNP and ssDNA with the prepara-tion procedures as recommended by the manufacturer. The cells were incubat ed for 48 h. Afterwards, the cells were trypsinized and transferred to 24 -well plates, and incubated for another 72 h. Then, the cells were harvested and prepared for flow cytom-etry analysis. […]
Half maximal effective concentration (EC50) values were calculated by GraphPad prism 5. […] All other data were analyzed with GraphPad prism 5 and presented as arithmetic mean ± standard deviation (SD) of at least triplicates. […]

Row | Compound | logD [1] | PDI of Cas9 RNP nanocarriers [2] | hydrodynamic size (z-average) of Cas9 RNP nanocarriers [2] [nm] | zeta potential of Cas9 RNP nanocarriers [2] [mV] | eGFP knockout (HeLa eGFP/tub cells) [%]
1 | CCCCC/C=C\C/C=C\CCCCCCCC(=O)NCCCC[C@H](NC(=O)CCCCCCC/C=C\C/C=C\CCCCC)C(=O)NCCCC[C@H](NC(=O)CCCC(=O)NCCCNCCNCCCNC(=O)[C@H](Cc1ccc(O)cc1)NC(=O)[C@H](Cc1ccc(O)cc1)NC(=O)[C@H](Cc1ccc(O)cc1)NC(=O)[C@@H](N)CCCCN=[N+]=[N-])C(=O)NCCCNCCNCCCNC(=O)CCCC(=O)N[C@@H](Cc1ccc(O)cc1)C(=O)N[C@@H](Cc1ccc(O)cc1)C(=O)N[C@@H](Cc1ccc(O)cc1)C(=O)O [GEIPA1-LinA] | -0.33 |  |  |  | 
2 | CCCCC/C=C\C/C=C\CCCCCCCC(=O)NCCCC[C@H](NC(=O)CCCCCCC/C=C\C/C=C\CCCCC)C(=O)NCCCC[C@H](NC(=O)[C@H](Cc1c[nH]cn1)NC(=O)CNCC(=O)NCCNCCNCCNCCNC(=O)[C@H](Cc1c[nH]cn1)NC(=O)[C@H](Cc1ccc(O)cc1)NC(=O)[C@H](Cc1ccc(O)cc1)NC(=O)[C@H](Cc1ccc(O)cc1)NC(=O)[C@@H](N)CCCCN=[N+]=[N-])C(=O)N[C@@H](Cc1c[nH]cn1)C(=O)NCCNCCNCCNCCNC(=O)CNCC(=O)N[C@@H](Cc1c[nH]cn1)C(=O)N[C@@H](Cc1ccc(O)cc1)C(=O)N[C@@H](Cc1ccc(O)cc1)C(=O)N[C@@H](Cc1ccc(O)cc1)C(=O)O [IDAtp1-H-LinA] | -1.51 | 0.19 ± 0.02 | 189.1 ± 4.2 | 13.7 ± 1.2 | 
3 | CCCCC/C=C\C/C=C\CCCCCCCC(=O)NCCCC[C@H](NC(=O)CCCCCCC/C=C\C/C=C\CCCCC)C(=O)NCCCC[C@H](NC(=O)CNCC(=O)NCCNCCNCCNCCNC(=O)[C@H](Cc1ccc(O)cc1)NC(=O)[C@H](Cc1ccc(O)cc1)NC(=O)[C@H](Cc1ccc(O)cc1)NC(=O)[C@@H](N)CCCCN=[N+]=[N-])C(=O)NCCNCCNCCNCCNC(=O)CNCC(=O)N[C@@H](Cc1ccc(O)cc1)C(=O)N[C@@H](Cc1ccc(O)cc1)C(=O)N[C@@H](Cc1ccc(O)cc1)C(=O)O [IDAtp1-LinA] | -1.11 |  |  |  | 
4 | CCCCC/C=C\C/C=C\CCCCCCCC(=O)NCCCC[C@H](NC(=O)CCCCCCC/C=C\C/C=C\CCCCC)C(=O)NCCCC[C@H](NC(=O)[C@H](Cc1c[nH]cn1)NC(=O)CCC(=O)NCCNCCNCCNCCNC(=O)[C@H](Cc1c[nH]cn1)NC(=O)[C@H](Cc1ccc(O)cc1)NC(=O)[C@H](Cc1ccc(O)cc1)NC(=O)[C@H](Cc1ccc(O)cc1)NC(=O)[C@@H](N)CCCCN=[N+]=[N-])C(=O)N[C@@H](Cc1c[nH]cn1)C(=O)NCCNCCNCCNCCNC(=O)CCC(=O)N[C@@H](Cc1c[nH]cn1)C(=O)N[C@@H](Cc1ccc(O)cc1)C(=O)N[C@@H](Cc1ccc(O)cc1)C(=O)N[C@@H](Cc1ccc(O)cc1)C(=O)O [Stp1-H-LinA] |  |  |  |  | ~80
5 | K(N3)-C-Y3-GEIPA2-K(K(OHSteA)2)-GEIPA2-Y3-C [GEIPA2-C-OHSteA, lipid-modified xenopeptide, X2-C-OHSteA architecture, artificial amino acid GEIPA] |  | 0.28 ± 0.02 | 179.8 ± 5.3 | 13.4 ± 2.1 | 
